{"source": "patent US11564913B2", "about": "“Compositions and methods for treating cancer” (Children's Hospital Medical Center, priority 2019, dated 2023)", "key": {"[1]": {"test_system": "active RhoA in MDA-MB-231 cells", "assay": "Active GTPase pull-down (GST-Rhotekin RBD)", "assay_type": "cell-based, human", "details": "0-3 μM, 1 h", "method": "FIG. 5: Cytoskeletal changes induced by IODVA1 treatment. IODVA1 inhibits lamellipodia and circular dorsal ruffle (CDR) formation in MDA-MB-231 cells and decreases Rac activation. (A) IODVA1 inhibits EGF-induced lamellipodia formation in MDA-MB-231 cells. MDA-MB-231 cells were plated on fibronectin-coated coverslips, serum starved for 4 h, incubated with the indicated concentrations of IODVA1 for 1 h, then EGF (50 ng/mL) stimulated, fixed and stained with Phalloidin Alexa Fluor 594 (F-Actin, pseudocolored red) and DAPI (nuclei, pseudocolored blue). […] The percentage of cells with CDRs was counted as the number of cells with CDRs normalized to the total number of cells in the field. Around 150 cells were counted per condition per experiment. Cells with multiple CDRs were counted only once. […] Levels of active Rac (RacGTP, % of control), active Cdc42 (Cdc42GTP, % of control) and active RhoA (RhoAGTP, % of control) were quantified using ImageJ and ImageLab and show combined data as mean±s.e.m. from at least 3 independent experiments. […]\nTo confirm that IODVA1 interferes with Rac activation, applicants checked the levels of active Rac and its downstream effector PAK1/2. MDA-MB-231 cells were incubated with IODVA1 (0-3 μM) for 1 h and levels of GTP-bound active Rac were measured by GST-PAK-GBD pull-downs and quantified (FIG. 5C). […]"}, "[2]": {"test_system": "MDA-MB-231 cells", "assay": "Cell spreading on fibronectin", "assay_type": "cell-based, human", "details": "30 min exposure, serum-free", "method": "FIG. 6: IODVA1 inhibits cell-substratum and cell-cell interactions. (A) IODVA1 impedes spreading of MCF7 and MDA-MB-231 cells on fibronectin. MCF7, T47D, and MDA-MB-231 cells were incubated on fibronectin coated coverslips for 10 min, then further incubated with the indicated concentrations of IODVA1 for 30 min in serum-free media, fixed and observed by bright field microscopy. Areas of single cells were calculated from 6 random fields (no less than 300 cells total per treatment group). Results shown are mean±s.e.m. of a single experiment and are representative of three independent experiments. (B) Effects of IODVA1 treatment on spheroid formation in MCF10A, MCF7, T47D, and MDA-MB-231 cells. […] Aggregates and spheroids were dissociated with accutase and trituration, and the number of live cells was determined by trypan blue exclusion. […]\nApplicants assessed if IODVA1 interferes with cell spreading on the extracellular matrix, an event that is also governed by the rearrangement of the actin cytoskeleton. […] No changes in the area in T47D cells were detected, although more rounded cells in the presence of IODVA1 were observed.\nFor cell spreading, MDA-MB-231, MCF7 and T47D were seeded on fibronectin-coated coverslips in serum-free media. […] Six random fields were imaged under 20× objective and cell area of individual cells were quantified to assess the degree of spreading (ImageJ). […]"}}, "data": [{"smiles": "OC1(c2ccccn2)N=C(Nc2nc3ccccc3[nH]2)N=C1c1ccccn1", "note": "(centres unmarked) [IODVA1, (Z)-2-((1H-benzo[d]imidazol-2-yl)imino)-4,5-di(pyridin-2-yl)-2,5-dihydro-1H-imidazol-5-ol]", "values": [{"measurement": "levels of active RhoA", "setting": "[1]", "result": "not affected"}, {"measurement": "concentration at which spreading is interfered with (decrease in cell area)", "setting": "[2]", "result": 1, "unit": "µM"}]}]}
